Source: US10724100B2, “Systems and methods for treating patients having a genetic predisposition to develop prostate cancer” (Institute for Cancer Research, priority 2015, dated 2020)

Test system: peripheral blood lymphocytes (PBLs) of prostate cancer patients and matched controls
Assay: γH2AX foci immunofluorescence in PHA/IL-2-stimulated peripheral blood lymphocytes after DNA damaging agents
Type: cell-based, human
Conditions: PBLs from 9 patients and 10 age- and gender-matched controls; 10 μM aphidicolin or 25 μM etoposide; fixed 2 hours later; p=0.0337 (aphidicolin), p=0.007 (etoposide)
Experimental: Peripheral blood lymphocytes (PBLs) were available from 9/12 of the exome sequenced patients and 10 age-matched and gender-matched individuals without a cancer diagnosis or a family history of cancer. […] For analysis of DDR, cells were cultured in RPMI-1640 containing 15% fetal bovine serum (HyClone Laboratories, Logan, Utah), 2 mM L-glutamine (Life Technologies, Grand Island, N.Y.), 50 μM 2-mercaptoethanol (Sigma-Aldrich, St. Louis, Mo.), 0.2 units human recombinant insulin (Sigma) per ml, 50 units penicillin and 50 mg streptomycin per ml (complete RPMI), and then stimulated with phytohemagglutinin (PHA)-M (Life Technologies, Grand Island, N.Y.) and recombinant human interleukin 2 (IL-2) (NCI Preclinical Repository) for 72 hours. […] For immunofluorescence, cells were allowed to attach to poly-d-lysine-coated 96-well plates, stained with anti-γH2AX antibody (#05-636, Millipore, Temecula, Calif.). Sixteen images per well were acquired at 20× (with each image acquired in 2 channels to detect γH2AX with TRITC and total DNA with DAPI) utilizing the ImageXpress micro automated microscope (Molecular Devices, Sunnyvale, Calif.) driven by MetaXpress software. […]

## C[C@@]1(CO)[C@H](O)CC[C@@]2(C)[C@H]1CC[C@H]1C[C@@H]3C[C@@]12CC[C@]3(O)CO [aphidicolin]
  γH2AX induction (nuclear γH2AX foci per cell), cases versus controls: higher magnitude of induction seen in prostate cancer patients
